Laboratory results from patent publication US20200268703A1, “MEDICINE FOR TREATING ADVANCED OR RECURRENT CANCER PATIENT BEING NON-RESPONSIVE OR NON-TOLERANT TO STANDARD CHEMOTHERAPY AND INCURABLE AND UNRESECTABLE” (HYOGO COLLEGE OF MEDICINE, priority 2017, published 2020).

System: advanced or recurrent gastric cancer
Assay: Tumor immunity risk index value and disease course in gastric cancer patients given propagermanium
Assay type: in vivo, human
Details: for Disease course / Tumor immunity risk index value: 28th day after starting administration
Description: 30 mg of propagermanium [trade name: SEROCION (registered trademark), produced by SANWA KAGAKU KENKYUSHO CO., LTD.] was administered orally in three divided doses per day after meals to 4 patient cases (PG-1 to PG-4) who were diagnosed as advanced or recurrent oral cavity cancer which is non-responsive or non-tolerant to the standard chemotherapy and incurable and unresectable, a 2 patient cases (PG-5 and PG-6) who were diagnosed as advanced or recurrent gastric cancer which is non-responsive or non-tolerant to the standard chemotherapy [gastric cancer treatment guideline fourth edition (edited by Japan Gastric cancer Association, revised in May 2014)] and incurable and unresectable, and 5 healthy person cases (PG-7 to PG-11). 7.5 mL of peripheral blood of the cancer patients (PG-1 and PG-3: only before administration, PG-5 and PG-6: before administration and only 28th day after a start of administration) and healthy persons (all: only before the administration), were collected by a BD vacutainer blood collection tube at the time before the administration of the propagermanium and on 28th and 56th days after starting the administration. Thereafter, and the peripheral blood was centrifuged (1500 G for 15 minutes) to obtain the peripheral blood mononuclear cells (PBMC). The obtained peripheral blood mononuclear cells were fixed and stained using a T cell surface marker and a mouse IgG anti-human antibody against intracellular keratin. The stained cells were analyzed by flow cytometry using a Spectral Cell Analyzer (SP-6800, manufactured by SONY).
Regarding the T cells and the cytotoxic T cells, among living cells, CD45 positive and CD3 positive cells are separated to obtain T cells, and among the CD45 positive and CD3 positive cells, CD8 positive and CD4 negative cells are separated to obtain the cytotoxic T cells. The proportion of the cytotoxic T cells in the T cells was calculated.
In the circulating tumor cells in blood, in order to label the cytokeratin present inside the cells, after using Perm Buffer reagent (#421403, produced by BioLegend), staining was performed using a pankeratin antibody (#4523, produced by Cell Signaling). Since the circulating tumor cells in blood are larger than lymphocytes, when flow cytometry is performed, cells were selected in a wider range than in the selection of normal lymphocytes. After selecting cells negative in staining using Ghost Dye Violet 450 as living cells, pankeratin positive cells were regarded as the circulating tumor cells in blood, and the number of the pankeratin positive cells in 10000 peripheral blood mononuclear cells was calculated.
The calculated number of the pankeratin positive cells and the proportion of cytotoxic T cells in the T cells is substituted into Expression (1) below.
Number of pankeratin positive cells (pieces)/Proportion of cytotoxic T cells in T cells (%)/10 (I)
The disease of each patient was determined by an attending physician based on results of endoscopy, computed tomography (CT) examination, positron emission tomography (PET)-CT examination, magnetic resonance imaging (MRI) examination, X-ray (X-P) examination, and blood biochemistry examination including the major markers.

propagermanium
Evaluation of the administration (effective / ineffective) (patient PG-5 (gastric cancer)): ineffective | Disease course (patient PG-5 (gastric cancer)): disease progressed | Tumor immunity risk index value (patient PG-5 (gastric cancer), before 5.04): 9.55 | Evaluation of the administration (effective / ineffective) (patient PG-6 (gastric cancer)): effective | Disease course (patient PG-6 (gastric cancer)): disease was controlled | Tumor immunity risk index value (patient PG-6 (gastric cancer), before 41.12): 0.31
